Source: PubChem BioAssay (NCI)
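Grown in 96-well plates, cells were treated for 48 hours with each compound at five concentrations. Insufficient inhibition: endpoint recorded as highest concentration tested. Abbreviation: GI50, concentration required for 50% inhibition of growth. TGI denotes the concentration required for complete inhibition of growth.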

Legend:
Assay in all cases: NCI tumour cell line growth inhibition, 48 h
EKVX NSCLC = tested on: EKVX NSCLC
NCI/ADR-RES ovarian = tested on: NCI/ADR-RES ovarian
PC-3 prostate = tested on: PC-3 prostate
HCC-2998 colon = tested on: HCC-2998 colon
ACHN renal = tested on: ACHN renal
SK-MEL-5 melanoma = tested on: SK-MEL-5 melanoma
K-562 leukemia = tested on: K-562 leukemia
NCI-H226 lung = tested on: NCI-H226 lung
UACC-62 melanoma = tested on: UACC-62 melanoma
SF-268 CNS = tested on: SF-268 CNS
OVCAR-4 ovarian = tested on: OVCAR-4 ovarian
NCI-H460 lung = tested on: NCI-H460 lung
COLO 205 colon = tested on: COLO 205 colon
NCI-H23 lung = tested on: NCI-H23 lung
DU-145 prostate = tested on: DU-145 prostate
HCT-15 colon = tested on: HCT-15 colon
SK-OV-3 ovarian = tested on: SK-OV-3 ovarian
OVCAR-5 ovarian = tested on: OVCAR-5 ovarian
MOLT-4 leukemia = tested on: MOLT-4 leukemia
T-47D breast = tested on: T-47D breast
SK-MEL-28 melanoma = tested on: SK-MEL-28 melanoma
LOX IMVI melanoma = tested on: LOX IMVI melanoma
HL-60(TB) leukemia = tested on: HL-60(TB) leukemia
786-0 renal = tested on: 786-0 renal
HOP-62 NSCLC = tested on: HOP-62 NSCLC
A498 renal = tested on: A498 renal
OVCAR-8 ovarian = tested on: OVCAR-8 ovarian
MALME-3M melanoma = tested on: MALME-3M melanoma
UO-31 renal = tested on: UO-31 renal
UACC-257 melanoma = tested on: UACC-257 melanoma
MDA-MB-435 = tested on: MDA-MB-435
HS 578T breast = tested on: HS 578T breast
RXF 393 renal = tested on: RXF 393 renal
SF-295 CNS = tested on: SF-295 CNS
SN12C renal = tested on: SN12C renal
RPMI-8226 leukemia = tested on: RPMI-8226 leukemia
IGROV1 ovarian = tested on: IGROV1 ovarian
TK-10 renal = tested on: TK-10 renal
U251 CNS = tested on: U251 CNS
A549 NSCLC = tested on: A549 NSCLC
CCRF-CEM leukemia = tested on: CCRF-CEM leukemia
SNB-19 CNS = tested on: SNB-19 CNS
KM12 colon = tested on: KM12 colon
SR leukemia = tested on: SR leukemia
HT29 colon = tested on: HT29 colon
SNB-75 CNS = tested on: SNB-75 CNS
OVCAR-3 ovarian = tested on: OVCAR-3 ovarian
MDA-MB-231 breast = tested on: MDA-MB-231 breast
SK-MEL-2 melanoma = tested on: SK-MEL-2 melanoma
NCI-H522 lung = tested on: NCI-H522 lung
HOP-92 NSCLC = tested on: HOP-92 NSCLC
BT-549 breast = tested on: BT-549 breast
SW-620 colon = tested on: SW-620 colon

SMILES: COc1cc([C@@H]2c3cc4c(cc3[C@H](OC(C)=O)[C@H]3COC(=O)[C@H]23)OCO4)cc(OC)c1OC
- GI50 (EKVX NSCLC): 56.8 nM
- TGI (EKVX NSCLC): > 100000 nM
- GI50 (NCI/ADR-RES ovarian): 27.1 nM
- TGI (NCI/ADR-RES ovarian): > 100000 nM
- GI50 (PC-3 prostate): 37.1 nM
- TGI (PC-3 prostate): > 100000 nM
- GI50 (HCC-2998 colon): 40.1 nM
- TGI (HCC-2998 colon): > 100000 nM
- GI50 (ACHN renal): 44 nM
- TGI (ACHN renal): > 100000 nM
- GI50 (SK-MEL-5 melanoma): 22.9 nM
- TGI (SK-MEL-5 melanoma): 65.8 nM
- GI50 (K-562 leukemia): 32.1 nM
- TGI (K-562 leukemia): > 100000 nM
- GI50 (NCI-H226 lung): 97.5 nM
- TGI (NCI-H226 lung): > 100000 nM
- GI50 (UACC-62 melanoma): 59.8 nM
- TGI (UACC-62 melanoma): > 100000 nM
- GI50 (SF-268 CNS): 48.4 nM
- TGI (SF-268 CNS): > 100000 nM
- GI50 (OVCAR-4 ovarian): 82.6 nM
- TGI (OVCAR-4 ovarian): > 100000 nM
- GI50 (NCI-H460 lung): 31.7 nM
- TGI (NCI-H460 lung): > 100000 nM
- GI50 (COLO 205 colon): 28.8 nM
- TGI (COLO 205 colon): 78.5 nM
- GI50 (NCI-H23 lung): 53 nM
- TGI (NCI-H23 lung): > 100000 nM
- GI50 (DU-145 prostate): 41.2 nM
- TGI (DU-145 prostate): > 100000 nM
- GI50 (HCT-15 colon): 31.6 nM
- TGI (HCT-15 colon): > 100000 nM
- GI50 (SK-OV-3 ovarian): 35 nM
- TGI (SK-OV-3 ovarian): > 100000 nM
- GI50 (OVCAR-5 ovarian): 53.3 nM
- TGI (OVCAR-5 ovarian): > 100000 nM
- GI50 (MOLT-4 leukemia): 38.5 nM
- TGI (MOLT-4 leukemia): > 100000 nM
- GI50 (T-47D breast): 66.9 nM
- TGI (T-47D breast): > 100000 nM
- GI50 (SK-MEL-28 melanoma): 13100 nM
- TGI (SK-MEL-28 melanoma): > 100000 nM
- GI50 (LOX IMVI melanoma): 29.3 nM
- TGI (LOX IMVI melanoma): > 100000 nM
- GI50 (HL-60(TB) leukemia): 22.3 nM
- TGI (HL-60(TB) leukemia): 60.2 nM
- GI50 (786-0 renal): 34.1 nM
- TGI (786-0 renal): > 100000 nM
- GI50 (HOP-62 NSCLC): 48.3 nM
- TGI (HOP-62 NSCLC): > 100000 nM
- GI50 (A498 renal): 13.9 nM
- TGI (A498 renal): 65 nM
- GI50 (OVCAR-8 ovarian): 36.1 nM
- TGI (OVCAR-8 ovarian): > 100000 nM
- GI50 (MALME-3M melanoma): > 100000 nM
- TGI (MALME-3M melanoma): > 100000 nM
- GI50 (UO-31 renal): 80.8 nM
- TGI (UO-31 renal): > 100000 nM
- GI50 (UACC-257 melanoma): > 100000 nM
- TGI (UACC-257 melanoma): > 100000 nM
- GI50 (MDA-MB-435): 19.2 nM
- TGI (MDA-MB-435): 53.3 nM
- GI50 (HS 578T breast): 31.2 nM
- TGI (HS 578T breast): > 100000 nM
- GI50 (RXF 393 renal): 69.1 nM
- TGI (RXF 393 renal): > 100000 nM
- GI50 (SF-295 CNS): 26 nM
- TGI (SF-295 CNS): > 100000 nM
- GI50 (SN12C renal): 45.7 nM
- TGI (SN12C renal): > 100000 nM
- GI50 (RPMI-8226 leukemia): 30 nM
- TGI (RPMI-8226 leukemia): 3190 nM
- GI50 (IGROV1 ovarian): 57.1 nM
- TGI (IGROV1 ovarian): > 100000 nM
- GI50 (TK-10 renal): 75200 nM
- TGI (TK-10 renal): > 100000 nM
- GI50 (U251 CNS): 35.2 nM
- TGI (U251 CNS): > 100000 nM
- GI50 (A549 NSCLC): 34.9 nM
- TGI (A549 NSCLC): > 100000 nM
- GI50 (CCRF-CEM leukemia): 33.7 nM
- TGI (CCRF-CEM leukemia): > 100000 nM
- GI50 (SNB-19 CNS): 43.6 nM
- TGI (SNB-19 CNS): > 100000 nM
- GI50 (KM12 colon): 30.6 nM
- TGI (KM12 colon): > 100000 nM
- GI50 (SR leukemia): 22.5 nM
- TGI (SR leukemia): > 100000 nM
- GI50 (HT29 colon): 33.5 nM
- TGI (HT29 colon): 17900 nM
- GI50 (SNB-75 CNS): 8430 nM
- TGI (SNB-75 CNS): > 100000 nM
- GI50 (OVCAR-3 ovarian): 34 nM
- TGI (OVCAR-3 ovarian): > 100000 nM
- GI50 (MDA-MB-231 breast): 41.6 nM
- TGI (MDA-MB-231 breast): > 100000 nM
- GI50 (SK-MEL-2 melanoma): 27600 nM
- TGI (SK-MEL-2 melanoma): > 100000 nM
- GI50 (NCI-H522 lung): 18 nM
- TGI (NCI-H522 lung): 72.2 nM
- GI50 (HOP-92 NSCLC): 25.4 nM
- TGI (HOP-92 NSCLC): 4940 nM
- GI50 (BT-549 breast): 31.1 nM
- TGI (BT-549 breast): 21900 nM
- GI50 (SW-620 colon): 33.4 nM
- TGI (SW-620 colon): > 100000 nM
